Holding throughout (format): functional, organism-based
For experiment [1], the system named is Plasmodium falciparum. As to the kind of experiment: Antimalarial activity against chloroquine-sensitive Plasmodium falciparum NF54 infected in RBC after 72 hrs by [3H]hypoxanthine incorporation assay in presence of 0.5 % albumax.
Experiment [2] has as its system Plasmodium falciparum. Put plainly: Antimalarial activity against chloroquine-sensitive Plasmodium falciparum NF54 infected in RBC after 72 hrs by [3H]hypoxanthine incorporation assay in presence of 50 % serum.
Experiment [3] deals with Plasmodium falciparum. Put plainly: Antimalarial activity against chloroquine-sensitive Plasmodium falciparum NF54 infected in RBC after 24 hrs by [3H]hypoxanthine incorporation assay in presence of 0.5 % albumax.

A value given as a limit tells only on which side of the number the result lay.

In general, IC50 refers to the concentration that inhibits the measured activity by half.

Turning to `CC(C)(NC[C@@H](O)[C@H](Cc1ccccc1)NC(=O)c1cccc(C(F)(F)F)c1)c1ccccc1`, in the experiment on Plasmodium falciparum [1], the IC50 amounted to 0.3 µM. With `CCCN(CCC)C(=O)c1cccc(C(=O)N[C@@H](Cc2ccccc2)[C@H](O)CNC(C)(C)c2cccc(F)c2)c1`, the IC50 with Plasmodium falciparum [2] stood at 0.05 µM; in the experiment with Plasmodium falciparum [1], 0.0096 µM.

In the case of `CCCN(CCC)C(=O)c1cccc(C(=O)N[C@@H](Cc2ccccc2)[C@H](O)CNC2CCN(C)CC2)c1`, the half-inhibitory concentration (IC50) with Plasmodium falciparum [2] and in the experiment with Plasmodium falciparum [1] was above 0.5 µM each time. `CCCN(CCC)C(=O)c1cccc(C(=O)N[C@@H](Cc2ccccc2)[C@H](O)CNC(C)(C)c2ccccc2)c1`: the IC50 in the experiment with Plasmodium falciparum [2] was found to be 0.04 µM; in the experiment on Plasmodium falciparum [1] it was 0.0076 µM. On to `CC(C)(NC[C@@H](O)[C@H](Cc1ccccc1)NC(=O)c1cccc2ncccc12)c1ccccc1`, for which the IC50 in the experiment with Plasmodium falciparum [1] was above 0.5 µM. Still for that read-out and setting: the figure for `CCCN(CCC)C(=O)c1cccc(C(=O)N[C@@H](Cc2ccccc2)[C@H](O)CN[C@@H](C)c2ccccc2)c1` is 0.021 µM. Take `C[C@@H](NC[C@@H](O)[C@H](Cc1ccccc1)NC(=O)c1cccc(C(=O)N2CCCC2)c1)c1ccccc1`: the 50% inhibitory concentration (IC50) with Plasmodium falciparum [2] stood at 0.0093 µM; in the experiment with Plasmodium falciparum [1] it was 0.0049 µM. The matching figures for `C[C@@H](NC[C@@H](O)[C@H](Cc1ccccc1)NC(=O)c1ccc(O)c(CN2CCCC2)c1)c1ccccc1`: 0.386 µM and 0.261 µM. As to `CC(=O)N1CCN(c2ccc(C(=O)N[C@@H](Cc3ccccc3)[C@H](O)CNC(C)(C)c3ccccc3)cc2)CC1`, the IC50 in the experiment on Plasmodium falciparum [1] was 0.162 µM. `CCCN(CCC)C(=O)c1ccccc1C(=O)N[C@@H](Cc1ccccc1)[C@H](O)CN[C@H](C)c1ccccc1`: the IC50 with Plasmodium falciparum [2] and in the experiment with Plasmodium falciparum [1] was above 0.5 µM in each case. For the molecule `C[C@@H](NC[C@@H](O)[C@H](Cc1ccccc1)NC(=O)c1cccc(C(=O)N2CCN(C)CC2)c1)c1ccccc1`, the IC50 with Plasmodium falciparum [2] worked out at 0.102 µM; in the experiment on Plasmodium falciparum [1], 0.098 µM. Turning to `CC(=O)Nc1cccc(C(=O)N[C@@H](Cc2ccccc2)[C@H](O)CNC(C)(C)c2ccccc2)c1`, the 50% inhibitory concentration (IC50) in the experiment with Plasmodium falciparum [1] was 0.044 µM. Take `Cn1cnc(C(=O)N[C@@H](Cc2ccccc2)[C@H](O)CNC(C)(C)c2ccccc2)c1`: the IC50 in the experiment with Plasmodium falciparum [1] is above 0.5 µM. `CC(C)(NC[C@@H](O)[C@H](Cc1ccccc1)NC(=O)C1CCCC1)c1ccccc1`: the IC50 with Plasmodium falciparum [1] is above 0.5 µM. Regarding `CCCN(CCC)C(=O)c1cccc(C(=O)N[C@@H](Cc2ccccc2)[C@H](O)CN[C@@H](C)C2CCCCC2)c1`, the figures for the IC50 with Plasmodium falciparum [2] and in the experiment with Plasmodium falciparum [1] were 0.466 µM and 0.324 µM, respectively. The matching figures for `CCCN(CCC)C(=O)c1cccc(C(=O)N[C@@H](Cc2ccccc2)[C@H](O)CNCCCc2ccccc2)c1`: 0.126 µM and 0.043 µM. In the case of `CC(C)(NC[C@@H](O)[C@H](Cc1ccccc1)NC(=O)c1ccncc1)c1ccccc1`, the IC50 in the experiment with Plasmodium falciparum [1] is above 0.5 µM. For the molecule `Cc1cc(C(=O)N[C@@H](Cc2ccccc2)[C@H](O)CNC(C)(C)c2ccccc2)nn1C`, in the experiment on Plasmodium falciparum [1], the IC50 was above 0.5 µM. For the molecule `CCCN(CCC)C(=O)c1cccc(C(=O)N[C@@H](Cc2ccccc2)[C@H](O)CNC2(c3ccccc3)CC2)c1`, the IC50 in the experiment with Plasmodium falciparum [2] worked out at 0.435 µM; in the experiment with Plasmodium falciparum [1], 0.116 µM.

Regarding `CN(C)c1cccc(C(=O)N[C@@H](Cc2ccccc2)[C@H](O)CNC(C)(C)c2ccccc2)c1`, the IC50 in the experiment on Plasmodium falciparum [1] is 0.102 µM. Take `CCCN(CCC)C(=O)c1cccc(C(=O)N[C@@H](Cc2ccccc2)[C@@H](O)CNCCCc2ccccc2)c1`: the IC50 in the experiment with Plasmodium falciparum [2] and in the experiment on Plasmodium falciparum [1] was above 0.5 µM each time. Consider `CCCN(CCC)C(=O)c1cccc(C(=O)N[C@@H](Cc2ccccc2)[C@H](O)CNC2CCOCC2)c1`, for which the IC50 is 0.034 µM in the experiment on Plasmodium falciparum [2] and 0.016 µM in the experiment on Plasmodium falciparum [1]. With `CCCN(CCC)C(=O)c1cccc(C(=O)N[C@@H](Cc2ccccc2)[C@H](O)CNC2(c3ccccc3)CCCC2)c1`, the IC50 in the experiment on Plasmodium falciparum [2] was determined as 0.168 µM; in the experiment on Plasmodium falciparum [1], 0.012 µM. The matching figures for `CCCN(CCC)C(=O)c1cccc(C(=O)N[C@@H](Cc2ccccc2)[C@H](O)CNC(C)(C)c2ccc(F)cc2)c1`: 0.11 µM and 0.024 µM.

On to `COc1cccc(C(=O)N[C@@H](Cc2ccccc2)[C@H](O)CNC(C)(C)c2ccccc2)c1`, for which the IC50 in the experiment on Plasmodium falciparum [1] amounted to 0.349 µM. As for `CCCN(CCC)C(=O)c1cccc(C(=O)N[C@@H](Cc2ccccc2)[C@H](O)CNC(C)(C)c2ccc(OC)cc2)c1`, the values for the IC50 in the experiment on Plasmodium falciparum [2] and in the experiment with Plasmodium falciparum [1] were 0.044 µM and 0.013 µM, respectively.

Regarding `CCCN(CCC)C(=O)c1cccc(C(=O)N[C@@H](Cc2ccccc2)[C@H](O)CNC(C)(C)C)c1`, the IC50 in the experiment on Plasmodium falciparum [2] was determined as 0.066 µM; in the experiment on Plasmodium falciparum [1] it was 0.024 µM.

For `CCCN(CCC)C(=O)c1cccc(C(=O)N[C@@H](Cc2ccccc2)[C@H](O)CN[C@H](C)C2CCCCC2)c1`, the IC50 is 0.048 µM with Plasmodium falciparum [2] and 0.011 µM in the experiment on Plasmodium falciparum [1].

Turning to `CC(=O)N[C@@H](Cc1ccccc1)[C@H](O)CNC(C)(C)c1ccccc1`, in the experiment with Plasmodium falciparum [1], the IC50 was above 0.5 µM. Regarding `CC(C)C[C@H](NC(=O)c1ccc(N2CCN(C)CC2)cc1)[C@H](O)CNC1CCCC1`, the IC50 in the experiment on Plasmodium falciparum [2] and with Plasmodium falciparum [1] was above 0.5 µM each time. Take `CC(C)(NC[C@@H](O)[C@H](Cc1ccccc1)NC(=O)Cc1ccccc1)c1ccccc1`: in the experiment on Plasmodium falciparum [1], the IC50 is above 0.5 µM. Same read-out and setting: as for `CCCN(CCC)C(=O)c1cccc(C(=O)N[C@@H](Cc2ccccc2)[C@H](O)CN2CCN(Cc3ccccc3)CC2)c1`, the figure is above 0.5 µM. Turning to `CN1CCN(c2ccc(C(=O)N[C@@H](Cc3ccccc3)C(F)(F)CNC3CCCC3)cc2)CC1`, the half-inhibitory concentration (IC50) in the experiment on Plasmodium falciparum [2] and in the experiment with Plasmodium falciparum [1] was above 0.5 µM in each case.

In the case of `COCCCC(=O)N[C@@H](Cc1ccccc1)[C@H](O)CNC(C)(C)c1ccccc1`, in the experiment with Plasmodium falciparum [1], the IC50 is above 0.5 µM. Consider `CCCN(CCC)C(=O)c1cccc(C(=O)N[C@@H](Cc2ccccc2)[C@H](O)CNC(C)(C)c2ccccc2F)c1`, for which the concentration for half-maximal inhibition (IC50) in the experiment on Plasmodium falciparum [2] worked out at 0.142 µM; with Plasmodium falciparum [1] it was 0.021 µM. Take `CCCN(CCC)Cc1ccc(Nc2ccc(C(=O)N[C@@H](Cc3ccccc3)[C@H](O)CN[C@H](C)c3ccccc3)cc2)cc1O`: the IC50 stood at 0.077 µM in the experiment with Plasmodium falciparum [3], 0.02 µM in the experiment with Plasmodium falciparum [2] and 0.022 µM with Plasmodium falciparum [1]. Take `CN1CCCc2cc(C(=O)N[C@@H](Cc3ccccc3)[C@H](O)CNC(C)(C)c3ccccc3)ccc21`: the IC50 in the experiment on Plasmodium falciparum [1] is above 0.5 µM. Same read-out and setting: the figure for `CC(C)(C)c1ccc(/C=C/C(=O)N[C@@H](Cc2ccccc2)[C@H](O)CNC(C)(C)c2ccccc2)cc1` is 0.444 µM; for `Cn1cc(C(=O)N[C@@H](Cc2ccccc2)[C@H](O)CNC(C)(C)c2ccccc2)c2ccccc21` it is above 0.5 µM; for `CCCN(CCC)C(=O)c1cccc(C(=O)N[C@@H](Cc2ccccc2)[C@H](O)CNC2CCc3ccccc32)c1` (stereo partly specified) it is 0.048 µM. Still for that read-out and setting: the figure for `CC(C)(NC[C@@H](O)[C@H](Cc1ccccc1)NC(=O)c1ccc(Cl)cc1)c1ccccc1` is 0.349 µM.

For the molecule `CC1CN(c2ccc(C(=O)N[C@@H](Cc3ccccc3)[C@H](O)CN[C@H](C)c3ccccc3)cc2)CCN1` (stereo partly specified), the IC50 with Plasmodium falciparum [2] came to 0.3 µM; in the experiment on Plasmodium falciparum [1], 0.19 µM. The matching figures for `CCCN(CCC)C(=O)c1cccc(C(=O)N[C@@H](Cc2ccccc2)[C@H](O)CNC(C)(C)c2cccc(OC)c2)c1`: 0.025 µM and below 0.0078 µM. Regarding `CCCN(CCC)C(=O)c1cccc(C(=O)N[C@H](CCNC(C)C)Cc2ccccc2)c1`, the concentration for half-maximal inhibition (IC50) in the experiment with Plasmodium falciparum [2] and with Plasmodium falciparum [1] was above 0.5 µM throughout. In the case of `CCCN(CCC)C(=O)c1cccc(C(=O)N[C@@H](Cc2ccccc2)[C@H](O)CNC(C)C)c1`, the IC50 worked out at 0.15 µM with Plasmodium falciparum [2] and 0.078 µM in the experiment on Plasmodium falciparum [1]. As to `CCCN(CCC)C(=O)c1cccc(C(=O)N[C@@H](Cc2ccccc2)[C@H](O)CNCc2ccccc2)c1`, in the experiment on Plasmodium falciparum [1], the IC50 is above 0.5 µM.

As to `CCCN(CCC)C(=O)c1cccc(C(=O)N[C@@H](Cc2ccccc2)[C@H](O)CNCCc2ccccc2)c1`, the IC50 with Plasmodium falciparum [1] amounted to 0.186 µM.

With `CN1CCN(c2ccc(C(=O)N[C@@H](Cc3ccccc3)[C@H](O)CNC3CCCC3)cc2)CC1`, the results for the IC50 in the experiment with Plasmodium falciparum [2] and in the experiment with Plasmodium falciparum [1] were 0.075 µM and 0.081 µM, respectively.

Regarding `CCCN(CCC)C(=O)c1cccc(C(=O)N[C@@H](Cc2ccccc2)[C@H](O)CNC(C)(C)c2cccc(C#N)c2)c1`, the IC50 in the experiment on Plasmodium falciparum [2] was 0.0086 µM; in the experiment on Plasmodium falciparum [1], below 0.0015 µM. For `CCCNC(=O)c1cccc(C(=O)N[C@@H](Cc2ccccc2)[C@H](O)CN[C@H](C)c2ccccc2)c1` the same measures were 0.03 µM and 0.012 µM. For `CCCN(CCC)C(=O)c1cccc(C(=O)N[C@@H](Cc2ccccc2)[C@H](O)CN2CCN(C(C)=O)CC2)c1`, in the experiment with Plasmodium falciparum [1], the IC50 was above 0.5 µM. For the molecule `CCCN(CCC)C(=O)c1cccc(C(=O)N[C@@H](Cc2ccccc2)[C@H](O)CNC(C)(C)c2ccc(C#N)cc2)c1`, the results for the half-inhibitory concentration (IC50) in the experiment with Plasmodium falciparum [2] and with Plasmodium falciparum [1] were 0.188 µM and 0.055 µM, respectively. On to `CC(C)(NC[C@@H](O)[C@H](Cc1ccccc1)NC(=O)c1ccc2cc[nH]c2c1)c1ccccc1`, for which the IC50 with Plasmodium falciparum [1] is 0.146 µM.

On to `CC(NC[C@@H](O)[C@H](Cc1ccccc1)NC(=O)c1ccc(N2CCN(C)CC2)cc1)c1ccc(O)c(CN2CCCCC2)c1` (stereo partly specified), for which the concentration for half-maximal inhibition (IC50) came to 0.125 µM in the experiment on Plasmodium falciparum [2] and 0.203 µM with Plasmodium falciparum [1]. `CCCN(CCC)C(=O)c1cccc(C(=O)N[C@@H](Cc2ccccc2)[C@H](O)CNC2Cc3ccccc3C2)c1`: the IC50 in the experiment with Plasmodium falciparum [1] was 0.011 µM.

As for `CCCN(CCC)C(=O)c1cccc(C(=O)N[C@@H](Cc2ccccc2)[C@H](O)CNC(C)(C)c2ccc3ccccc3c2)c1`, the IC50 with Plasmodium falciparum [2] stood at 0.143 µM; in the experiment with Plasmodium falciparum [1], 0.045 µM. For `CCCN(CCC)C(=O)c1cccc(C(=O)N[C@@H](Cc2ccccc2)[C@H](O)CNC2CCCCC2)c1` the same measures were 0.028 µM and 0.014 µM. The matching figures for `C[C@@H](NC[C@@H](O)[C@H](Cc1ccccc1)NC(=O)c1ccc(N2CCN(Cc3ccccc3)CC2)cc1)c1ccccc1`: 0.039 µM and 0.021 µM. For `C[C@@H](NC[C@@H](O)[C@H](Cc1ccccc1)NC(=O)c1cccc(C(=O)N2CCCCCC2)c1)c1ccccc1` the same measures were 0.013 µM and 0.0038 µM. `CC(C)(NC[C@@H](O)[C@H](Cc1ccccc1)NC(=O)Cc1cccc2ccccc12)c1ccccc1`: the half-inhibitory concentration (IC50) with Plasmodium falciparum [1] was above 0.5 µM. As for `CC(C)(NC[C@@H](O)[C@H](Cc1ccccc1)NC(=O)c1cccc(-c2ccccc2)c1)c1ccccc1`, the 50% inhibitory concentration (IC50) with Plasmodium falciparum [1] came out at 0.037 µM.

Source of the values: ChEMBL document CHEMBL2331413, “Novel in vivo active anti-malarials based on a hydroxy-ethyl-amine scaffold” (Bioorg Med Chem Lett, 2013).
